Test: Stability in mouse plasma
Type: in vitro ADME
Conditions: 1 h
Procedure: SDC-TRAP-0022 and SDC-TRAP-0028 were incubated in human and mouse plasma for 2 h at 37° C. and assayed for integrity at 0.25, 0.5, 1 and 2 h. The values reported below are the remaining of the parent compound at the end of the 2 h incubation period.
This solution was used to precipitate all plasma samples in the study. 200 μL was pipetted into a 96 deepwell plate over dry ice. 10 μL of 1 mM stock in DMSO was added to a 1.5 mL microfuge tube, then 990 μL of plasma. Samples were mixed by vortex, then 50 μL of each sample was added in triplicate to a 96-well plate containing internal standard solution. This was designated the 0 hour time point sample. 250 μL of the remaining plasma sample was added to each of four 96 deepwell plates—one per time point. Samples were incubated at 37° C. with gentle shaking for 0.25, 0.5, and 1 hour. After each time point, one plate of each sample was removed from the shaker and placed on wet ice for approximately 2 minutes. 50 μL plasma aliquots (in triplicate) were added to the deepwell plate containing internal standard solution. After the last time point was extracted, the 96 deepwell plate was vortexed, then centrifuged at 2-8° C. 150 μL of supernatant was collected and 25 μL of water was added. Samples were mixed and analyzed by LC-MS/MS.
The stability of seven SDC-TRAP types in mouse plasma was measured as follows. 990 μL mouse plasma aliquots from a common stock were spiked with 10 μL of 1 mM stock of one of seven SDC-TRAP samples identified in the table below. Each sample was mixed and divided into 250 μL aliquots, each representing time points 0, 15 minutes, 30 minutes or 1 hour. At the prescribed time point, 3×50 μL samples were each mixed with 200 μL of methanol containing internal standard and held on dry ice until all time point samples were extracted. The samples collectively were vortex mixed for 1.5 minutes at 1500 rpm, then centrifuged at 4400 rpm for 10 minutes at 8° C.

SMILES	% Remaining (mouse plasma, 37° C.) [%]	% Remaining (mouse, plasma, 10 μM) [%]
CCNC(=O)c1nnc(-c2cc(C(C)C)c(O)cc2O)n1-c1ccc(Oc2ccc(N(C)C(=O)Oc3ccc4nc5c(c(CC)c4c3)Cn3c-5cc4c(c3=O)COC(=O)[C@]4(O)CC)cc2)cc1 [SDC-TRAP-0145, (S)-4,11-diethyl-4-hydroxy-3,14-dioxo-3,4,12,14-tetrahydro-1H-pyrano[3′,4′:6,7]indolizino[1,2-b]quinolin-9-yl (4-(4-(3-(2,4-dihydroxy-5-isopropylphenyl)-5-(ethylcarbamoyl)-4H-1,2,4-triazol-4-yl)phenoxy)phenyl)(methyl)carbamate]	14.1	
CCc1c2c(nc3ccc(OC(=O)N4CCCCC4C(=O)N4CCC(CCn5ccc6cc(-n7c(O)nnc7-c7cc(C(C)C)c(O)cc7O)ccc65)CC4)cc13)-c1cc3c(c(=O)n1C2)COC(=O)[C@]3(O)CC (stereo partly drawn) [SDC-TRAP-0215, (S)-4,11-diethyl-4-hydroxy-3,14-dioxo-3,4,12,14-tetrahydro-1H-pyrano[3′,4′:6,7]indolizino[1,2-b]quinolin-9-yl 2-(4-(2-(5-(3-(2,4-dihydroxy-5-isopropylphenyl)-5-hydroxy-4H-1,2,4-triazol-4-yl)-1H-indol-1-yl)ethyl)piperidine-1-carbonyl)piperidine-1-carboxylate]	77.2	
CCc1c2c(nc3ccc(OC(=O)N4CCN(Cc5ccc(-n6c(O)nnc6-c6cc(C(C)C)c(O)cc6O)cc5)CC4C)cc13)-c1cc3c(c(=O)n1C2)COC(=O)C3(O)CC (stereo not shown) [SDC-TRAP-0220, 4,11-diethyl-4-hydroxy-3,14-dioxo-3,4,12,14-tetrahydro-1H-pyrano[3′,4′:6,7]indolizino[1,2-b]quinolin-9-yl 4-(4-(3-(2,4-dihydroxy-5-isopropylphenyl)-5-hydroxy-4H-1,2,4-triazol-4-yl)benzyl)-2-methylpiperazine-1-carboxylate]	78.3	
CC(C)c1cc(-c2nnc(O)n2-c2ccc(CN3CCN(C(=O)COC(=O)Nc4cccc5c4CN(C4CCC(=O)NC4=O)C5=O)CC3)cc2)c(O)cc1O (stereo not shown) [SDC-TRAP-0121, 2-(4-(4-(3-(2,4-dihydroxy-5-isopropylphenyl)-5-hydroxy-4H-1,2,4-triazol-4-yl)benzyl)piperazin-1-yl)-2-oxoethyl(2-(2,6-dioxopiperidin-3-yl)-1-oxoisoindolin-4-yl)carbamate]		89.1
CCc1c2c(nc3ccc(O)cc13)-c1cc3c(c(=O)n1C2)COC(=O)C3(CC)OC(=O)N(C)CCCCN1CCN(Cc2ccc(-n3c(O)nnc3-c3cc(C(C)C)c(O)cc3O)cc2)CC1 (stereo not shown) [SDC-TRAP-0055, 4,11-diethyl-9-hydroxy-3,14-dioxo-3,4,12,14-tetrahydro-1H-pyrano[3′,4′:6,7]indolizino[1,2-b]quinolin-4-yl (4-(4-(4-(3-(2,4-dihydroxy-5-isopropylphenyl)-5-hydroxy-4H-1,2,4-triazol-4-yl)benzyl)piperazin-1-yl)butyl)(methyl)carbamate]		103
CCNC(=O)c1nnc(-c2cc(C(C)C)c(O)cc2O)n1-c1ccc2c(ccn2CCC2CCN(C(=O)Oc3ccc4nc5c(c(CC)c4c3)Cn3c-5cc4c(c3=O)COC(=O)[C@]4(O)CC)CC2)c1 [SDC-TRAP-0205, (S)-4,11-diethyl-4-hydroxy-3,14-dioxo-3,4,12,14-tetrahydro-1H-pyrano[3′,4′:6,7]indolizino[1,2-b]quinolin-9-yl 4-(2-(5-(3-(2,4-dihydroxy-5-isopropylphenyl)-5-(ethylcarbamoyl)-4H-1,2,4-triazol-4-yl)-1H-indol-1-yl)ethyl)piperidine-1-carboxylate]	58.4	
CCNC(=O)c1nnc(-c2cc(C(C)C)c(O)cc2O)n1-c1ccc(Oc2ccc(C(=O)N3CCC(COC(=O)Nc4cccc5c4CN(C4CCC(=O)NC4=O)C5=O)CC3)cc2)cc1 (stereo not shown) [SDC-TRAP-0125, (1-(4-(4-(3-(2,4-Dihydroxy-5-isopropylphenyl)-5-(ethylcarbamoyl)-4H-1,2,4-triazol-4-yl)phenoxy)benzoyl)piperidin-4-yl)methyl (2-(2,6-dioxopiperidin-3-yl)-1-oxoisoindolin-4-yl)carbamate]		99.4
CCc1c2c(nc3ccc(O)cc13)-c1cc3c(c(=O)n1C2)COC(=O)C3(CC)OC(=O)N1CCN(Cc2ccc(-n3c(O)nnc3-c3cc(C(C)C)c(O)cc3O)cc2)CC1 (stereo not shown) [SDC-TRAP-0047, 4,11-diethyl-9-hydroxy-3,14-dioxo-3,4,12,14-tetrahydro-1H-pyrano[3′,4′:6,7]indolizino[1,2-b]quinolin-4-yl 4-(4-(3-(2,4-dihydroxy-5-isopropylphenyl)-5-hydroxy-4H-1,2,4-triazol-4-yl)benzyl)piperazine-1-carboxylate]	89	
CC(C)c1cc(-c2nnc(O)n2-c2ccc(N3CCN(C(=O)c4ccc(COC(=O)Nc5cccc6c5CN(C5CCC(=O)NC5=O)C6=O)cc4)CC3)cc2)c(O)cc1O (stereo not shown) [SDC-TRAP-0156, 4-(4-(4-(3-(2,4-Dihydroxy-5-isopropylphenyl)-5-hydroxy-4H-1,2,4-triazol-4-yl)phenyl)piperazine-1-carbonyl)benzyl (2-(2,6-dioxopiperidin-3-yl)-1-oxoisoindolin-4-yl)carbamate]		90.3
CCNC(=O)c1nnc(-c2cc(C(C)C)c(O)cc2O)n1-c1ccc(OC2CCN(C(=O)Oc3c(C)cc(COC(=O)Nc4cccc5c4CN(C4CCC(=O)NC4=O)C5=O)cc3C)CC2)cc1 (stereo not shown) [SDC-TRAP-0187, 4-((((2-(2,6-dioxopiperidin-3-yl)-1-oxoisoindolin-4-yl)carbamoyl)oxy)methyl)-2,6-dimethylphenyl 4-(4-(3-(2,4-dihydroxy-5-isopropylphenyl)-5-(ethylcarbamoyl)-4H-1,2,4-triazol-4-yl)phenoxy)piperidine-1-carboxylate]		102
CCc1c2c(nc3ccc(O)cc13)-c1cc3c(c(=O)n1C2)COC(=O)C3(CC)OC(=O)N(C)CCOCCn1ccc2cc(-n3c(O)nnc3-c3cc(C(C)C)c(O)cc3O)ccc21 (stereo not shown) [SDC-TRAP-0037, 4,11-diethyl-9-hydroxy-3,14-dioxo-3,4,12,14-tetrahydro-1H-pyrano[3′,4′:6,7]indolizino[1,2-b]quinolin-4-yl (2-(2-(5-(3-(2,4-dihydroxy-5-isopropylphenyl)-5-hydroxy-4H-1,2,4-triazol-4-yl)-1H-indol-1-yl)ethoxy)ethyl)(methyl)carbamate]	95	
CCNC(=O)c1nnc(-c2cc(C(C)C)c(O)cc2O)n1-c1ccc2c(ccn2CCC2CCN(C(=O)O[C@]3(CC)C(=O)OCc4c3cc3n(c4=O)Cc4c-3nc3ccc(O)cc3c4CC)CC2)c1 [SDC-TRAP-0208, (S)-4,11-diethyl-9-hydroxy-3,14-dioxo-3,4,12,14-tetrahydro-1H-pyrano[3′,4′:6,7]indolizino[1,2-b]quinolin-4-yl 4-(2-(5-(3-(2,4-dihydroxy-5-isopropylphenyl)-5-(ethylcarbamoyl)-4H-1,2,4-triazol-4-yl)-1H-indol-1-yl)ethyl)piperidine-1-carboxylate]	86.1	
COc1cc(O)c(-c2nnc(C(=O)NC(C)C)n2-c2ccc(CN3CCC(C(=O)Nc4cccc5c4CN(C4CCC(=O)NC4=O)C5=O)CC3)cc2)cc1C(C)C (stereo not shown) [SDC-TRAP-0115, N-(2-(2,6-dioxopiperidin-3-yl)-1-oxoisoindolin-4-yl)-1-(4-(3-(2-hydroxy-5-isopropyl-4-methoxyphenyl)-5-(isopropylcarbamoyl)-4H-1,2,4-triazol-4-yl)benzyl)piperidine-4-carboxamide]		85.9
CCNC(=O)c1nnc(-c2cc(C(C)C)c(O)cc2O)n1-c1ccc2c(c1)CN(Cc1cc(OC)c(OC(=O)Nc3cccc4c3CN(C3CCC(=O)NC3=O)C4=O)c(OC)c1)C2 (stereo not shown) [SDC-TRAP-0196]		66.2
CCNC(=O)c1nnc(-c2cc(C(C)C)c(O)cc2O)n1-c1ccc(CN2CCC(C(=O)N3CCN(c4cc(C)c(OC(=O)Nc5cccc6c5CN(C5CCC(=O)NC5=O)C6=O)c(C)c4)CC3)CC2)cc1 (stereo not shown) [SDC-TRAP-0195, 4-(4-(1-(4-(3-(2,4-dihydroxy-5-isopropylphenyl)-5-(ethylcarbamoyl)-4H-1,2,4-triazol-4-yl)benzyl)piperidine-4-carbonyl)piperazin-1-yl)-2,6-dimethylphenyl (2-(2,6-dioxopiperidin-3-yl)-1-oxoisoindolin-4-yl)carbamate]		98.4
CCNC(=O)c1nnc(-c2cc(C(C)C)c(O)cc2O)n1-c1ccc(Oc2ccc(C(=O)N3CCC(N(C)C(=O)Oc4ccc5nc6c(c(CC)c5c4)Cn4c-6cc5c(c4=O)COC(=O)C5(O)CC)CC3)cc2)cc1 (stereo not shown) [SDC-TRAP-0180, 4,11-Diethyl-4-hydroxy-3,14-dioxo-3,4,12,14-tetrahydro-1H-pyrano[3′,4′:6,7]indolizino[1,2-b]quinolin-9-yl (1-(4-(4-(3-(2,4-dihydroxy-5-isopropylphenyl)-5-(ethylcarbamoyl)-4H-1,2,4-triazol-4-yl)phenoxy)benzoyl)piperidin-4-yl)(methyl)carbamate]	72.4	
CCNC(=O)c1nnc(-c2cc(C(C)C)c(O)cc2O)n1-c1ccc(C(=O)N(C)CC(=O)Nc2cccc3c2CN(C2CCC(=O)NC2=O)C3=O)cc1 (stereo not shown) [SDC-TRAP-0147, 5-(2,4-dihydroxy-5-isopropylphenyl)-4-(4-((2-((2-(2,6-dioxopiperidin-3-yl)-1-oxoisoindolin-4-yl)amino)-2-oxoethyl)(methyl)carbamoyl)phenyl)-N-ethyl-4H-1,2,4-triazole-3-carboxamide]		98.1
CC(C)c1cc(-c2nnc(O)n2-c2ccc(CN3CCN(C(=O)c4ccc(COC(=O)Nc5cccc6c5CN(C5CCC(=O)NC5=O)C6=O)cc4)CC3)c(F)c2)c(O)cc1O (stereo not shown) [SDC-TRAP-0157, 4-(4-(4-(3-(2,4-dihydroxy-5-isopropylphenyl)-5-hydroxy-4H-1,2,4-triazol-4-yl)-2-fluorobenzyl)piperazine-1-carbonyl)benzyl (2-(2,6-dioxopiperidin-3-yl)-1-oxoisoindolin-4-yl)carbamate]		81.4
CCNC(=O)c1nnc(-c2cc(C(C)C)c(O)cc2O)n1-c1ccc(C(=O)N2CCN(c3cc(C)c(OC(=O)Nc4cccc5c4CN(C4CCC(=O)NC4=O)C5=O)c(C)c3)CC2)cc1 (stereo not shown) [SDC-TRAP-0178, 4-(4-(4-(3-(2,4-dihydroxy-5-isopropylphenyl)-5-(ethylcarbamoyl)-4H-1,2,4-triazol-4-yl)benzoyl)piperazin-1-yl)-2,6-dimethylphenyl (2-(2,6-dioxopiperidin-3-yl)-1-oxoisoindolin-4-yl)carbamate]		82.0

From US10675360B2 (MADRIGAL PHARMACEUTICALS, INC., priority 2014, dated 2020)
